US20240238228A1, “COMPOSITIONS AND METHODS FOR TREATING ALLERGIES AND INFLAMMATORY CONDITIONS” (UNIVERSITY OF PITTSBURGH-OF THE COMMONWEALTH SYSTEM OF …, priority 2021, published 2024)
Where two headings read alike, the source gives them in different places.

Assays:
[1] = system: atopic dermatitis; test: MC903-induced atopic dermatitis model; type: in vivo, murine; details: MC903 4 nmol/ear daily, glyburide 2.5 mg/kg, i.p.
Protocol: Atopic dermatitis was induced by treating ears with MC903 (4 nmol/ear, daily). The contralateral ear was treated with the vehicle for MC903. Mice were treated with either glyburide (2.5 mg/kg, i.p., daily) or vehicle control. (A) Ear thickness was measured daily. (B-C) On day 11, mice were euthanized and ear tissue embedded sectioned and stained with (B) H & E to evaluate cellular infiltration or (C) Avidin (AvRho) to evaluate mast cells. […] (B-C) show representative images from 3-7 mice over two experiments.

[2] = system: peanut allergy; test: Peanut allergy desensitization by microneedle arrays; type: in vivo, mouse; details: delivered with peanut antigen by microneedle arrays to sensitized mice
[3] = system: passive cutaneous anaphylaxis (PCA); test: Passive cutaneous anaphylaxis (PCA) in mice; type: in vivo, mouse; details: glyburide 2.5 mg/kg i.p. 3 h prior to PCA induction
[4] = system: inflammasome; details: cited from earlier work
[5] = system: sepsis; details: in vivo; cited from earlier work
[6] = system: STAT5; test: STAT5 phosphorylation (flow cytometry) and nuclear localization (ImageStream) in BMMCs; type: cell-based, murine
Protocol: To detect phospho-Stat5Tyr694, MCs were loaded with IgE in serum and cytokine-free RPMI. Neurokinin A (1.0 μM) or vehicle control and DNP-HSA (100 ng/mL) were added simultaneously. At the indicated time, cells were fixed with 2.0% paraformaldehyde for 10 minutes then permeabilized with 90% methanol overnight at −20° C. Cells were stained with monoclonal anti-phospho-Stat5 Tyr694 Alexa Fluor 647 (clone C71E5, Cell Signaling Technology) for 60 minutes at room temperature. Nuclear co-localization was evaluated using ImageStream (Amnis). Activated BMMCs were fixed with 2.0% paraformaldehyde, permeabilized with Permeabilization Wash Buffer containing 3% FBS and 0.1% Triton X-100. and stained with anti-STAT5B Alexa Fluor 488 (clone EPR16671, Abcam) and DAPI. Data were analyzed using the Co-localization Wizard in IDEAS (v6.2). Co-localization for single cells expressing STAT5B and DAPI was quantified as Similarity Score, a log-transformed Pearson's correlation coefficient for the pixel intensity of corresponding images.

[7] = system: BMMCs; test: β-hexosaminidase release from BMMCs; type: cell-based, murine; details: incubated with NKA or activated with IgE and antigen in the presence of NKA
Protocol: (§1) Mast cells (5×10^5-1×10^6) were loaded with IgE ([…]) for a minimum of 3 h in Tyrode's Buffer. Neurokinin A ([…]) was added with DNP-HSA (Sigma, as indicated or 100 ng/mL) for 40 min at 37 C. Cells and supernatants were collected, cell pellets were lysed in Tyrode's Buffer by freeze-thawing then incubated with p-nitrophenyl N-acetyl j-D-glucosaminide (EMB Millipore, 5 mM) dissolved in citrate buffer (0.04 M, pH 4.5) for 90 minutes. The enzymatic reaction was stopped with glycine (0.4 M, pH 10.7). Absorbance at 450 nm was read. The average percentage of b-hexosaminidase release from triplicate values was calculated as (ODsup/ODsup+ODlysate)×100(%).

[8] = system: PMCs; test: β-hexosaminidase release from PMCs; type: cell-based, murine; details: incubated with NKA or activated with IgE and antigen in the presence of NKA
Protocol: as §1

[9] = system: calpain; test: Calpain activity in cell-free supernatants of activated PMCs; type: cell-based, murine; details: IgE+Ag with or without NKA for 60 min
Protocol: Calpain activity was detected from cell-free supernatants using the Calpain-Glo Protease Assay (Promega). Supernatants were incubated with substrate for 10 min prior to luminescent detection. In some experiments, glyburide or vehicle (0.1% DMSO) were added to cells 10 min prior to Ag. ELISA kits from eBioscience (IL-13), BioLegend, (TNF and IL-10) or RayBiotech (NKA) and used in accord with the manufacturer's recommendations.

[10] = system: IL10 mRNA; test: IL10 mRNA in ear skin 3 h after NKA injection; type: in vivo, mouse
Protocol: Total RNA was isolated from either MCs or murine ear tissue 3 h hours after NKA injection. Tissue was homogenized in Navy RINO tubes (Next Advance) in a Bullet Blender Storm (Next Advance). RNA was extracted per standard methods with Trizol (Invitrogen). cDNA was reversed transcribed with the Quantitech Reverse Transcription Kit (Qiagen). PCR products were amplified with Fast SybrGreen (ABI) on a StepOne Plus Cycler ([…]) using the following primers: TNF […] NO: 5), TNF […] NO: 6); IL13 […] NO: 7), IL13 […] NO: 8); IL10 […] NO: 9); IL10 […] NO: 10); Bactin […] NO: 11); Bactin […] NO: 12). Data are presented as 2^-ΔΔCT using f-actin as the housekeeping gene and normalizing to either untreated cells or naïve control mice.

[11] = system: allergic contact hypersensitivity (CHS); details: NKA administration, cited from earlier work
[12] = system: mucosal MCs from the lung; details: cited from earlier work
[13] = system: connective tissue MCs from the skin, the heart, or peritoneal MCs; details: cited from earlier work
[14] = system: MCs; details: previous studies; cited from earlier work

Row | Compound | cutaneous inflammation [1] | allergy to peanut allergen after CPE challenge [2] | ear thickness at 2 h [3] | levels of IL-13 in the skin ([3]; 24 hours) | levels of TNF in the skin ([3]; 24 hours) | inflammasome [4] | effect in diabetic patients in sepsis [5] | nuclear translocation of STAT5B (imaging flow cytometry) ([6]; 30 and 60 minutes following IgE crosslinking) | pTyr695-STAT5 detected by flow cytometry ([6]; 15 minutes after crosslinking IgE with Ag, NKA 1.0 μM) | β-hexosaminidase release [7] | β-hexosaminidase release [8] | calpain activity in supernatants [9] | IL10 mRNA in the skin ([10]; MC-deficient (Mcpt5Cre^+×Rosa26DTA^+) mice) | IL10 mRNA levels in the skin ([10]; MC-sufficient (Mcpt5Cre^−×Rosa26DTA^+) mice) | allergic contact hypersensitivity (CHS) in the skin [11] | allergic contact hypersensitivity (CHS) in the skin ([11]; listed as Neurokinin A) | histamine release [12] | histamine release [13] | effect on MCs (β-hexosaminidase or histamine release as readouts) [14]
1 | COc1ccc(Cl)cc1C(=O)NCCc1ccc(S(=O)(=O)NC(=O)NC2CCCCC2)cc1 [glyburide, reference compound] | reduces cutaneous inflammation | desensitizes | significantly reduced | diminished | diminished | inhibits | anti-inflammatory and protective | – | – | – | – | – | – | – | – | – | – | – | –
2 | Neurokinin A [NKA] | – | – | – | – | – | – | – | significantly reduced | reduced | no difference | no difference | significantly diminished | no difference | significantly increased | blocks | inhibits inflammation | induces histamine release | not | no effect
